These results are taken from Sander's compilation of Henry's law constants.

“And” between values parts separate entries of the source, which are not always exact repeats. Identical values can stand only once.

Data set [1] is described as follows: Henry solubility constant Hcp at 291 K (mol/(m3 Pa)).
The nature of data set [2]: Henry solubility constant Hcp at 294 K (mol/(m3 Pa)).
Data set [3] in a line: Henry solubility constant Hcp at 298.15 K (mol/(m3 Pa)).
Data set [4] can be described thus: Henry solubility constant Hcp at 301 K (mol/(m3 Pa)). The settings on record: reference: Nelson and Hoff (1968).
Data set [5] is described as follows: Henry solubility constant Hcp at 308 K (mol/(m3 Pa)). The settings on record: reference: Guo and Brimblecombe (2007).
Data set [6] in a line: Henry solubility constant Hcp at 293 K (mol/(m3 Pa)).
The nature of data set [7]: Henry solubility constant Hcp at 288 K (mol/(m3 Pa)).
Data set [8] can be described thus: Henry solubility constant Hcp at 290 K (mol/(m3 Pa)). The settings on record: reference: Thomas et al. (2006).
Data set [9] is described as follows: Henry solubility constant Hcp at 283 K (mol/(m3 Pa)).
Data set [10] is described as follows: Henry solubility constant Hcp at 297 K (mol/(m3 Pa)).
The nature of data set [11]: Henry solubility constant Hcp at 303 K (mol/(m3 Pa)). Particulars: reference: Richon et al. (1985).
The nature of data set [12]: Henry solubility constant Hcp at 295 K (mol/(m3 Pa)). The settings on record: reference: Lee and Schwartz (1981).
The nature of data set [13]: Henry solubility constant Hcp at 284 K (mol/(m3 Pa)). The settings on record: reference: George et al. (1994b).
Data set [14] in a line: Henry solubility constant Hcp at 278 K (mol/(m3 Pa)). Particulars: reference: De Bruyn et al. (1995a).
Where [15] appears, read: reference: Treves et al. (2000).
[16] abbreviates: reference: Murphy et al. (1983a).
[17] abbreviates: reference: Gan and Yates (1996).
Where [18] appears, read: reference: Elliott and Rowland (1993).
[19] abbreviates: reference: Glew and Moelwyn-Hughes (1953).
The mark [20] stands for this setting: reference: Swain and Thornton (1962).
Where [21] appears, read: reference: Komiyama and Inoue (1980).
Where [22] appears, read: reference: Mirabel et al. (1996).

As to `CCC(O)CO[N+](=O)[O-]` (configuration not stated) [1-nitrooxy-2-butanol], in data set [1] (setting [15]), the “Henry solubility constant Hcp at 291 K” value came to 89.
As to `Clc1cc(Cl)c(-c2ccc(Cl)c(Cl)c2Cl)cc1Cl` [2,2',3,4,4',5'-hexachlorobiphenyl], in data set [2] (reference: Brownawell (1986)), the “Henry solubility constant Hcp at 294 K” value worked out at 0.14. Moreover, the “Henry solubility constant Hcp” value in data set [3] (setting [16]) worked out at 0.021.
`Clc1ccc(Cl)c(-c2ccc(Cl)c(Cl)c2)c1` [2,3',4',5-tetrachlorobiphenyl]: the “Henry solubility constant Hcp at 294 K” value in data set [2] (reference: Brownawell (1986)) worked out at 0.11. For the same compound, in [3] (setting [16]), the “Henry solubility constant Hcp” value came to 0.049.
With `Clc1ccc(-c2ccccc2Cl)cc1` [2,4'-dichlorobiphenyl], the “Henry solubility constant Hcp at 294 K” value in data set [2] (reference: Brownawell (1986)) is 0.057. Besides, the “Henry solubility constant Hcp” value in data set [3] (reference: Charles and Destaillats (2005)) was 0.023; in [3] (setting [16]), 0.045.
Turning to `CCC(CO)O[N+](=O)[O-]` (configuration not stated) [2-nitrooxy-1-butanol], the “Henry solubility constant Hcp at 291 K” value in data set [1] (setting [15]) amounted to 88.
For the compound `CC(C)CC=O` [3-methylbutanal], in data set [4], the “Henry solubility constant Hcp at 301 K” value worked out at 0.02. In addition, the “Henry solubility constant Hcp” value in data set [3] (reference: Bruneel et al. (2016)) turned out to be 0.011; in data set [3] (reference: Pollien et al. (2003)), 0.026; in data set [3] (reference: Wieland et al. (2015)), 0.024.
On to `O=[N+]([O-])c1cccc(O)c1` [3-nitrophenol], for which the “Henry solubility constant Hcp at 308 K” value in [5] was 160.
Regarding `O=[N+]([O-])OCCCCO` [4-nitrooxy-1-butanol], the “Henry solubility constant Hcp at 291 K” value in data set [1] (setting [15]) came to 290.
As to `CC(O)CCO[N+](=O)[O-]` (configuration not stated) [4-nitrooxy-2-butanol], the “Henry solubility constant Hcp at 291 K” value in [1] (setting [15]) was 130.
As for `O=[N+]([O-])c1ccc(O)cc1` [4-nitrophenol], the “Henry solubility constant Hcp at 308 K” value in data set [5] is 210.
As to `BrBr` [bromine (molecular)], in data set [6] (reference: Jenkins and King (1965)), the “Henry solubility constant Hcp at 293 K” value is 0.0096. The “Henry solubility constant Hcp at 288 K” value in data set [7] (reference: Jones (1911)) amounted to 0.014. In addition, the “Henry solubility constant Hcp” value in data set [3] (reference: Hill et al. (1968)) is 0.0068; in data set [3] (reference: Kelley and Tartar (1956)) it was 0.007; in [3] (reference: Winkler (1899)) it was 0.0079; in [3] (reference: Winkler (1906)) it was 0.0078.
Regarding `CBr` [bromomethane], in data set [8], the “Henry solubility constant Hcp at 290 K” value was 0.002. In data set [2] (setting [17]), the “Henry solubility constant Hcp at 294 K” value was 0.0014. In addition, the “Henry solubility constant Hcp” value stood at 0.0018 in [3] (reference: De Bruyn and Saltzman (1997)); 0.0017 in data set [3] (setting [18]); 0.0016 in data set [3] (setting [19]); 0.0015 in [3] (setting [20]).
Regarding `C=CCl` [chloroethene], the “Henry solubility constant Hcp at 283 K” value in data set [9] (reference: Pearson and McConnell (1975)) was 8.5e-06. For the same compound, the results for the “Henry solubility constant Hcp” value in data set [3] (reference: Chen et al. (2012)) and in data set [3] (reference: Gossett (1987)) were 0.00041 and 0.00037, respectively.
Take `Cl/C=C\CCl` [cis-1,3-dichloropropene]: in [8], the “Henry solubility constant Hcp at 290 K” value was found to be 0.01. In data set [3] (reference: Leistra (1970)), the “Henry solubility constant Hcp” value was found to be 0.005.
Turning to `C[Si]1(C)O[Si](C)(C)O[Si](C)(C)O[Si](C)(C)O[Si](C)(C)O[Si](C)(C)O1` [dodecamethylcyclohexasiloxane], in data set [10] (reference: Xu and Kropscott (2012)), the “Henry solubility constant Hcp at 297 K” value is 4e-07.
Take `CCOC(C)=O` [ethyl ethanoate]: the “Henry solubility constant Hcp at 288 K” value in data set [7] (reference: Ioffe et al. (1984)) was 0.13; in data set [7] (reference: Pividal et al. (1992)) it was 0.11. In addition, the “Henry solubility constant Hcp at 303 K” value in data set [11] is 0.043. In addition, the “Henry solubility constant Hcp at 301 K” value in [4] was determined as 0.057. In addition, the “Henry solubility constant Hcp” value turned out to be 0.052 in data set [3] (reference: Ammari and Schroen (2019)); 0.051 in data set [3] (reference: Aprea et al. (2007)); 0.074 in [3] (reference: Butler and Ramchandani (1935)); 0.066 in [3] (reference: Druaux et al. (1998)); 0.062 in data set [3] (reference: Fenclová et al. (2014)); 0.062 in data set [3] (reference: Jones et al. (1988)). The “Henry solubility constant Hcp” value was 0.058 in data set [3] (reference: Kieckbusch and King (1979b)); 0.059 in data set [3] (reference: Kutsuna and Kaneyasu (2021)); 0.059 in [3] (reference: Kutsuna et al. (2005)); 0.057 in data set [3] (reference: Landy et al. (1995)).
As to `CI` [iodomethane], in data set [2] (setting [17]), the “Henry solubility constant Hcp at 294 K” value stood at 0.0019. Besides, the “Henry solubility constant Hcp” value worked out at 0.002 in data set [3] (reference: Balls (1980)); 0.002 in data set [3] (setting [18]); 0.0019 in [3] (setting [19]); 0.0019 in data set [3] (reference: Hunter-Smith et al. (1983)); 0.0018 in data set [3] (setting [20]).
In the case of `[O]N=O` [nitrogen dioxide], in data set [12], the “Henry solubility constant Hcp at 295 K” value is 6.9e-05. Further, the “Henry solubility constant Hcp at 288 K” value in data set [7] (setting [21]) was 0.00023. Moreover, in [3] (reference: Cheung et al. (2000)), the “Henry solubility constant Hcp” value worked out at 0.00012.
For `[N]=O` [nitrogen monoxide], the “Henry solubility constant Hcp at 297 K” value in [10] (reference: Zafiriou and McFarland (1980)) turned out to be 1.3e-05. For the same compound, the “Henry solubility constant Hcp at 288 K” value in data set [7] (setting [21]) stood at 2.3e-05. The “Henry solubility constant Hcp” value in data set [3] (reference: Komiyama and Inoue (1978)) came to 1.9e-05; in [3] (reference: Winkler (1901)) it was 1.9e-05.
Consider `O=[O+][O-]` [ozone], for which the “Henry solubility constant Hcp at 293 K” value stood at 0.00017 in data set [6] (reference: Gurol and Singer (1982)); 0.00011 in [6] (reference: Levanov et al. (2008)). The “Henry solubility constant Hcp” value in data set [3] (reference: Andreozzi et al. (1996)) was 9.2e-05; in [3] (reference: Briner and Perrottet (1939)), 0.00013; in data set [3] (reference: Fischer and Tropsch (1917)), 0.0002; in data set [3] (reference: Gershenzon et al. (2001)) it was 0.00011; in data set [3] (reference: Kilpatrick et al. (1956)) it was 9.9e-05; in [3] (reference: Kosak-Channing and Helz (1983)), 0.00011. In addition, the “Henry solubility constant Hcp” value in [3] (reference: Luther (1905)) was 8e-05; in [3] (reference: Mailfert (1894)), 0.00012; in data set [3] (reference: Rischbieter et al. (2000)), 9.9e-05; in data set [3] (reference: Sotelo et al. (1989)), 0.00012; in data set [3] (reference: Stumm (1958)), 0.00012. In addition, the “Henry solubility constant Hcp at 291 K” value in data set [1] (reference: Schöne (1873)) was found to be 0.00012.
As to `CC(=O)OO[N+](=O)[O-]` [peroxyacetyl nitrate], the “Henry solubility constant Hcp at 293 K” value in data set [6] (reference: Kames and Schurath (1995)) was 0.04. In data set [9] (reference: Holdren et al. (1984)), the “Henry solubility constant Hcp at 283 K” value was 0.049. Further, the figures for the “Henry solubility constant Hcp” value in data set [3] (reference: Easterbrook et al. (2023)), in data set [3] (reference: Frenzel et al. (2000)) and in [3] (reference: Kames et al. (1991)) were 0.03, 0.023 and 0.028, respectively.
Turning to `CC(C)=O` [propanone], the “Henry solubility constant Hcp at 293 K” value in data set [6] (reference: Yu (1992)) was determined as 0.17. Besides, the “Henry solubility constant Hcp at 297 K” value in [10] (reference: Nozière and Riemer (2003)) was 0.27. Also, the “Henry solubility constant Hcp at 303 K” value in data set [11] stood at 0.19. Besides, in [4], the “Henry solubility constant Hcp at 301 K” value came to 0.31. Further, the “Henry solubility constant Hcp” value was 0.27 in [3] (reference: Benkelberg et al. (1995)); 0.32 in [3] (reference: Betterton (1991)); 0.28 in [3] (reference: Burnett (1963)); 0.24 in [3] (reference: Chai et al. (2005)); 0.2 in [3] (reference: Ioffe et al. (1984)); 0.26 in data set [3] (reference: Ji and Evans (2007)). In addition, the “Henry solubility constant Hcp” value stood at 0.26 in [3] (reference: Lichtenbelt and Schram (1985)); 0.29 in data set [3] (reference: Poulain et al. (2010)); 0.32 in data set [3] (reference: Schoene and Steinhanses (1985)); 0.25 in data set [3] (reference: Snider and Dawson (1985)); 0.24 in data set [3] (reference: Straver and de Loos (2005)); 0.26 in [3] (reference: Strekowski and George (2005)). For the same compound, the “Henry solubility constant Hcp” value in data set [3] (reference: Vitenberg et al. (1974)) is 0.25 and 0.32; in [3] (reference: Vitenberg et al. (1975)) it was 0.25.
`Cl/C=C/CCl` [trans-1,3-dichloropropene]: the “Henry solubility constant Hcp at 290 K” value in [8] stood at 0.015. The “Henry solubility constant Hcp” value in data set [3] (reference: Leistra (1970)) turned out to be 0.0081.
Take `O=C(Cl)C(F)(F)F` [trifluoroacetylchloride]: the “Henry solubility constant Hcp at 284 K” value in data set [13] was 0.02. Also, in [3] (setting [22]), the “Henry solubility constant Hcp” value stood at 0.02. For the same compound, the “Henry solubility constant Hcp at 278 K” value in data set [14] was found to be 0.0027.
On to `O=C(F)C(F)(F)F` [trifluoroacetylfluoride], for which, in data set [13], the “Henry solubility constant Hcp at 284 K” value came out at 0.03. The “Henry solubility constant Hcp” value in [3] (setting [22]) is 0.03. For the same compound, the “Henry solubility constant Hcp at 278 K” value in [14] came out at 0.0095.
